Our source for the IC50 values is patent US9890153B2, “Substituted 1H-pyrrolo [2, 3-b] pyridine and 1H-pyrazolo [3, 4-b] pyridine derivatives as salt inducible kinase 2 (SIK2) inhibitors” (Arrien Pharmaceuticals LLC, priority 2012, dated 2018).

Some results are limits rather than exact numbers.

Holding throughout (assay type): biochemical
For assay [1], the target named is SIK2 (QIK) (SEQ ID NO: 11) (Homo sapiens, UniProt Q9H0K1). Briefly: SIK2 kinase assay (radiometric, 10 μM ATP). The conditions noted are these: read-out: SIK2 (QIK) (SEQ ID NO: 11) kinase inhibition result. How it is done:
Procedure: Enzyme was incubated with substrate peptide in reaction buffer in the presence and absence of test compounds or Staurosporine. All additions were done on ice, followed by the addition of ATP mix. Wells were uniformly mixed using an Eppendorff plate shaker and incubated at 30° C. for 20 min, and stopped by the addition of 5 μL of 3% phosphoric acid. Volume was increased to 100 μL by adding 0.8% phosphoric acid which was then transferred to PC filter mats (Millipore), pre-equilibrated with 70% ethanol and water. Plates were washed thrice with 100 μL 0.8% phosphoric acid and dried for an hour at 60° C.

For a further assay, the target named is T1, SIK1 (SEQ ID NO: 10) (Homo sapiens, UniProt P57059).
T1 construct: Reaction Biology Corporation (assay service, HotSpot panel)
T1 sequence (P57059 whole entry): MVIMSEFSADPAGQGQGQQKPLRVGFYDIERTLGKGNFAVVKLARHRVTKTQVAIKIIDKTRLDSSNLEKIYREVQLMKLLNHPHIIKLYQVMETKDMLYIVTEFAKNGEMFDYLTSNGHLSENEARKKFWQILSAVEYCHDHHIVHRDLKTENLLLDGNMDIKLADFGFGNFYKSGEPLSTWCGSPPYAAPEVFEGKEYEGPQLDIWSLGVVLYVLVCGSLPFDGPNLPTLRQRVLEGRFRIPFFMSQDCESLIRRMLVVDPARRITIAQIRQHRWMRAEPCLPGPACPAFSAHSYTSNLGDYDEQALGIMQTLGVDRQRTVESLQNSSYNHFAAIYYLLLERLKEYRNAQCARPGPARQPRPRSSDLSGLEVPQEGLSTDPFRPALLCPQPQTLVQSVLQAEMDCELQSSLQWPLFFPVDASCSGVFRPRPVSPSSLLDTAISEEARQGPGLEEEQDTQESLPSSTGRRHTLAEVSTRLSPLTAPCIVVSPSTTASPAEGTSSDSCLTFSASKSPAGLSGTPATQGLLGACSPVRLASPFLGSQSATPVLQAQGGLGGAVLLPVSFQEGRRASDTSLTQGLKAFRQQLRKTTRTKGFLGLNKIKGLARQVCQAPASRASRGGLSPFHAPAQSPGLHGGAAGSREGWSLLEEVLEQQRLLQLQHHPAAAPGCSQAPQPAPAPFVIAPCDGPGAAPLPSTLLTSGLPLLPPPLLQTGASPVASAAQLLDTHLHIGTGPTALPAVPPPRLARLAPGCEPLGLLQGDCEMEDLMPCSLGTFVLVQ
Briefly: Protein kinase assay, SIK1. The conditions noted are these: read-out: SIK1 (SEQ ID NO: 10) kinase inhibition result. On the procedure: (§1) Briefly, specific kinase/substrate pairs along with required cofactors were prepared in reaction buffer; 20 mM Hepes (pH 7.5), 10 mMmgCl2, 1 mM EGTA, 0.02% Brij35, 0.02 mg/ml BSA, 0.1 mM Na3VO4, 2 mM DTT, 1% DMSO. Compounds were delivered into the reaction, followed ˜20 min later by addition of a mixture of ATP (Sigma) and 33P ATP (PerkinElmer) to a final concentration of 10 μM. […] IC50 values and curve fits were obtained using Prism (GraphPad Software). Kinome tree representations were prepared using Kinome Mapper (http://www.reactionbiology.com/apps/kinome/mapper/LaunchKinome.htm).

Assay [2] has as its target T2, SIK3 (QSK) (SEQ ID NO: 24) (Homo sapiens, UniProt Q9Y2K2).
T2 construct: Reaction Biology Corporation (assay service, HotSpot panel)
Briefly: Protein kinase assay, SIK3. As to conditions: read-out: SIK3 (QSK) (SEQ ID NO: 24) kinase inhibition result. How it is done:
as §1

Chain of SIK2 (QIK) (SEQ ID NO: 11) (Q9H0K1 whole entry): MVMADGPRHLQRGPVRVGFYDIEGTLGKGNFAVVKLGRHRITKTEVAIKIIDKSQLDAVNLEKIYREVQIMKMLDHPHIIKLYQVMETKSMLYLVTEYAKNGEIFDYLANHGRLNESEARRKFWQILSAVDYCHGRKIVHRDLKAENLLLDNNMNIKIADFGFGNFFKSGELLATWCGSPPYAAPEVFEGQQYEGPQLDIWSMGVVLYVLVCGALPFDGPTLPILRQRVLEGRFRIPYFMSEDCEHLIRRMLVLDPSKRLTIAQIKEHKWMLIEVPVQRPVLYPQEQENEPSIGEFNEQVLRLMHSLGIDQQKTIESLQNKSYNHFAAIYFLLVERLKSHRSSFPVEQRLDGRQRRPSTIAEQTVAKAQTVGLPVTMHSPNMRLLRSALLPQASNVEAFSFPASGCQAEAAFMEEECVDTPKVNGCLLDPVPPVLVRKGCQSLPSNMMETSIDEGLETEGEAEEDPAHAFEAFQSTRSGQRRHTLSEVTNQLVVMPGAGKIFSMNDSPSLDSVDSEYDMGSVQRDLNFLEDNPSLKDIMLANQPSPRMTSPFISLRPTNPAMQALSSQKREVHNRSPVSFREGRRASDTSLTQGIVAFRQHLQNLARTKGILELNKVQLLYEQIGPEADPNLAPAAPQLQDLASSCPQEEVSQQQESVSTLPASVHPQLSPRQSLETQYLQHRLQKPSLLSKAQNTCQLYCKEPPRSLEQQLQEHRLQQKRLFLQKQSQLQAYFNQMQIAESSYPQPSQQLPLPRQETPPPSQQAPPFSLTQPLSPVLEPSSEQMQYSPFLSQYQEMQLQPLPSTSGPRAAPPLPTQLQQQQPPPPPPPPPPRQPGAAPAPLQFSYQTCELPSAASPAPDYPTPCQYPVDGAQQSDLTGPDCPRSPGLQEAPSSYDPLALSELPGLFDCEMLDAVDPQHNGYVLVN
T2 sequence (Q9Y2K2 whole entry): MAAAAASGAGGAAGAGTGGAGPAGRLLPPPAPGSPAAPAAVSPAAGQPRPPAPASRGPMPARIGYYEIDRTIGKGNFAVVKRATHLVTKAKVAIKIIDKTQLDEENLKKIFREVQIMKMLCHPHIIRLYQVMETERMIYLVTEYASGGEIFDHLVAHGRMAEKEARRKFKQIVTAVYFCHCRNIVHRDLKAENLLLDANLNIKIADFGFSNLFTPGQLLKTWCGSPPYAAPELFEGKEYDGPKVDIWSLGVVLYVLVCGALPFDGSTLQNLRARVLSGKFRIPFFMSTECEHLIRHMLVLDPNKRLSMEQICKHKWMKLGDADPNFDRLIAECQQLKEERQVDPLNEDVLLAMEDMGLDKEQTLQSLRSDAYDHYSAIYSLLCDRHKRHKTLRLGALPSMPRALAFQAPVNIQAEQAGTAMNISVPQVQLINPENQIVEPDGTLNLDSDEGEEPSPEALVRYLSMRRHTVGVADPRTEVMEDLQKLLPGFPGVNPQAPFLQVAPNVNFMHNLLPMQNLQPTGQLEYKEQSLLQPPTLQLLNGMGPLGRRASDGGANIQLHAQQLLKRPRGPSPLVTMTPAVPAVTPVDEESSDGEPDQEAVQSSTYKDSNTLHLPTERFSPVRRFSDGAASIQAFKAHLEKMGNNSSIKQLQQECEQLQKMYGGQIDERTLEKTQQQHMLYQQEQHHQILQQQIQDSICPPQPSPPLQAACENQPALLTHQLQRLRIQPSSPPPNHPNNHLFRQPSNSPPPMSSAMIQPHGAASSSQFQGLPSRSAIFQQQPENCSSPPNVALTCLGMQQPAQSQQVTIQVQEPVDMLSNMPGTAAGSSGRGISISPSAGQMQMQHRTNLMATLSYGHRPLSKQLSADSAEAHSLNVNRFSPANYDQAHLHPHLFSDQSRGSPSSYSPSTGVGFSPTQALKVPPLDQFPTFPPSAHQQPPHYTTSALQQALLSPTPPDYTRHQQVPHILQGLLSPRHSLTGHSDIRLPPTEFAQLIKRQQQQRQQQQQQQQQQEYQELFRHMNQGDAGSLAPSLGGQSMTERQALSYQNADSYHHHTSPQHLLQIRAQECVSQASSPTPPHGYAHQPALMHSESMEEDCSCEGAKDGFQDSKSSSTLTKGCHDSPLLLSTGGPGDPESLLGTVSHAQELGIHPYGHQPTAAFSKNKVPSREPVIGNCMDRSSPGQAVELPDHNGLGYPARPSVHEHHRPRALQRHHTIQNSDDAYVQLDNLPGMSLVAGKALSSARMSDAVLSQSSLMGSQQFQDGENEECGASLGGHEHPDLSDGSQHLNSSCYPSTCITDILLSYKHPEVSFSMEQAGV

As to `COc1c(F)cc(F)cc1-c1c[nH]c2ncc(-c3cccc(S(=O)(=O)N(C)C(C)(C)C)c3)cc12` [Example 181, N-(tert-butyl)-3-(3-(3,5-difluoro-2-methoxyphenyl)-1H-pyrrolo[2,3-b]pyridin-5-yl)-N-methylbenzenesulfonamide], the IC50 in assay [1] is below 100 nM; on SIK1 (SEQ ID NO: 10) it was above 1000 nM; in assay [2] it was above 100 nM.

On to `COc1c(F)cccc1-c1c[nH]c2ncc(-c3cccc(S(=O)(=O)N4CCCC4)c3)cc12` [Example 182, 3-(3-fluoro-2-methoxyphenyl)-5-(3-(pyrrolidin-1-ylsulfonyl)phenyl)-1H-pyrrolo[2,3-b]pyridine], for which the IC50 in assay [1] was below 100 nM; at SIK1 (SEQ ID NO: 10), above 1000 nM; in assay [2], above 100 nM.

On to `COc1c(F)cc(F)cc1-c1c[nH]c2ncc(-c3cccc(S(=O)(=O)N4CCCC4)c3)cc12` [Example 183, 3-(3,5-difluoro-2-methoxyphenyl)-5-(3-(pyrrolidin-1-ylsulfonyl)phenyl)-1H-pyrrolo[2,3-b]pyridine], for which the IC50 in assay [1] was below 100 nM; at SIK1 (SEQ ID NO: 10), above 1000 nM; in assay [2], above 100 nM.

In the case of `COc1c(F)cccc1-c1c[nH]c2ncc(-c3cccc(S(=O)(=O)N(C)C)c3)cc12` [Example 184, 3-(3-(3-fluoro-2-methoxyphenyl)-1H-pyrrolo[2,3-b]pyridin-5-yl)-N,N-dimethylbenzenesulfonamide], the values for the IC50 (in assay [1]; at SIK1 (SEQ ID NO: 10); in assay [2]) were below 100 nM, above 1000 nM and above 100 nM, respectively.

In the case of `COc1c(F)cc(F)cc1-c1c[nH]c2ncc(-c3cccc(S(=O)(=O)N(C)C)c3)cc12` [Example 185, 3-(3-(3,5-difluoro-2-methoxyphenyl)-1H-pyrrolo[2,3-b]pyridin-5-yl)-N,N-dimethylbenzenesulfonamide], the IC50 is below 100 nM in assay [1], above 1000 nM on SIK1 (SEQ ID NO: 10) and above 100 nM in assay [2].

As to `Oc1ccccc1-c1c[nH]c2ncc(-c3ccc(CN4CCOCC4)s3)cc12` [Example 192, 2-(5-(5-(morpholinomethyl)thiophen-2-yl)-1H-pyrrolo[2,3-b]pyridin-3-yl)phenol], the IC50 in assay [1] was below 100 nM; on SIK1 (SEQ ID NO: 10) it was above 100 nM; in assay [2], above 100 nM.

For `Oc1c(F)cccc1-c1c[nH]c2ncc(-c3ccc(CN4CCOCC4)s3)cc12` [Example 193, 2-fluoro-6-(5-(5-(morpholinomethyl)thiophen-2-yl)-1H-pyrrolo[2,3-b]pyridin-3-yl)phenol], the figures for the IC50 (in assay [1]; at SIK1 (SEQ ID NO: 10); in assay [2]) were below 100 nM, above 100 nM and above 100 nM, respectively.

`CN(C(C)(C)C)S(=O)(=O)c1cccc(-c2cnc3[nH]cc(-c4cccc5c4OC(F)(F)O5)c3c2)c1` [Example 196, N-(tertbutyl)-3-(3-(2,2-difluorobenzo[d][1,3]dioxol-4-yl)-1H-pyrrolo[2,3-b]pyridin-5-yl)-N-methylbenzene-sulfonamide]: the values for the IC50 (in assay [1]; at SIK1 (SEQ ID NO: 10); in assay [2]) were below 100 nM, above 100 nM and below 100 nM, respectively.

For the molecule `FC1(F)Oc2cccc(-c3c[nH]c4ncc(-c5ccc(CN6CCCC6)s5)cc34)c2O1` [Example 197, 3-(2,2-difluorobenzo[d][1,3]dioxol-4-yl)-5-(5-(pyrrolidin-1-ylmethyl)thiophen-2-yl)-1H-pyrrolo[2,3-b]pyridine], the IC50 was below 100 nM in assay [1], above 100 nM at SIK1 (SEQ ID NO: 10) and below 100 nM in assay [2].

`FC1(F)Oc2cccc(-c3c[nH]c4ncc(-c5ccc(CN6CCCCC6)s5)cc34)c2O1` [Example 198, 3-(2,2-difluorobenzo[d][1,3]dioxol-4-yl)-5-(5-(piperidin-1-ylmethyl)thiophen-2-yl)-1H-pyrrolo[2,3-b]pyridine]: the IC50 was below 100 nM in assay [1], above 100 nM on SIK1 (SEQ ID NO: 10) and below 100 nM in assay [2].

For `FC1(F)Oc2cccc(-c3c[nH]c4ncc(-c5csc(N6CCOCC6)n5)cc34)c2O1` [Example 199, 4-(4-(3-(2,2-difluorobenzo[d][1,3]dioxol-4-yl)-1H-pyrrolo[2,3-b]pyridin-5-yl)thiazol-2-yl)morpholine], the IC50 in assay [1] is below 100 nM; at SIK1 (SEQ ID NO: 10), above 100 nM; in assay [2], above 100 nM.
